The values that follow come from patent publication US10442835B2, “Water-soluble rapamycin derivatives” (Zhejiang Hisun Pharmaceutical Co., Ltd., priority 2016, dated 2019).

Bounds are passed on as bounds.

Data set [1] is described as follows: In vivo pharmacokinetic study in rats. More on the design: species or system SD rats. As for the experimental part: To further study the in vivo pharmacokinetic characteristics of compound I-1 in rats, compound I-1 was administrated to SD rats via intravenous injection. The in vivo pharmacokinetic characteristics and bioavailability of everolimus released in rats were measured, and compared with the pharmacokinetic characteristics of everolimus via oral administration.
Then the animals were observed when blood was sampled every time until the last sample was collected.

Data set [2] in a line: Test for solubility in water. Format: physicochemical. The note with it: water, thermodynamic from solid. Here is the method:
The experiments herein can measure the dissolution profile in water of the compounds according to the present invention.
To a 25 ml volumetric flask, 25 mg everolimus was added, and diluted with acetonitrile to volume. The mixture was shaken till all the solid dissolved, obtaining 1 mg/mL everolimus solution in acetonitrile.
1 mg/mL everolimus solution in acetonitrile was added to a 10 ml volumetric flask, and was diluted with acetonitrile by 2 times, 10 times, 100 times and 1000 times, so as to obtain everolimus solutions in acetonitrile with a concentration of 0.5 mg/mL, 0.1 mg/mL, 0.01 mg/mL and 0.001 mg/mL, respectively.
Each of the three mixtures was shaken till the solid in the volumetric flask stopped to dissolve. Before analyzed by HPLC, 1 mL of each solution was filtrated via a 0.22 μm filter. The solubility of the compounds was calculated from the standard curve using the peak area of the main peak obtained.
Based on the same study method, comparisons of the solubility between sirolimus/temsirolimus and the compounds modified by glutathione are carried out, respectively.

The mark [3] stands for this setting: Sprague-Dawley (SD), rat, everolimus in plasma, everolimus PO 10 mg/kg, male SD rats.

Take `CO[C@H]1C[C@@H]2CC[C@@H](C)[C@@](O)(O2)C(=O)C(=O)N2CCCC[C@H]2C(=O)O[C@H]([C@H](C)C[C@@H]2CC[C@@H](OCCO)[C@H](OC)C2)CC(=O)[C@H](C)/C=C(\C)[C@@H](O)[C@@H](OC)C(=O)[C@H](C)C[C@H](C)/C=C/C=C/C=C/1C` [Everolimus, reference compound]: the concentration at 3 h in data set [1] (Sprague-Dawley (SD), rat, plasma, 3 h, oral administration of everolimus 10.000 mg/kg, male SD rats) worked out at 64.3 ng/mL. In data set [1] (Sprague-Dawley (SD), rat, plasma, 4 h, oral administration of everolimus 10.000 mg/kg, male SD rats), this molecule came in with a concentration at 4 h of 61.4 ng/mL. In data set [1] (Sprague-Dawley (SD), rat, plasma, 6 h, oral administration of everolimus 10.000 mg/kg, male SD rats), this molecule gave a concentration at 6 h of 32.3 ng/mL. Besides, in data set [1] (setting [3]), the AUC(0-inf) was determined as 454 ng·h/mL, the area under the curve AUC(0-t) came to 454 ng·h/mL, the Cmax was found to be 126 ng/mL and the time to peak (Tmax) was determined as 1.91 h. Further, the half-life in data set [1] (setting [3]) is 2.2 h. The mean residence time (MRT) in data set [1] (Sprague-Dawley (SD), rat, everolimus in plasma, everolimus PO 10 mg/kg, male SD rats, read-out: MRT (mean residence time)) is 3.17 h. For the same molecule, the “AUC Extr” value in data set [1] (everolimus in plasma, everolimus PO 10 mg/kg, male SD rats) stood at 6.90%. The same molecule registered a concentration at 0 h in data set [1] (rat, plasma, 0 h, oral administration of everolimus 10.000 mg/kg, male SD rats) of 0 ng/mL. Also, in data set [1] (rat, plasma, 0.25 h, oral administration of everolimus 10.000 mg/kg, male SD rats), the concentration at 0.25 h was 17.3 ng/mL. Also, the concentration at 0.5 h in data set [1] (rat, plasma, 0.5 h, oral administration of everolimus 10.000 mg/kg, male SD rats) came out at 99.9 ng/mL. Moreover, the concentration at 1 h in data set [1] (rat, plasma, 1 h, oral administration of everolimus 10.000 mg/kg, male SD rats) is 99.1 ng/mL. The concentration at 1.5 h in data set [1] (rat, plasma, 1.5 h, oral administration of everolimus 10.000 mg/kg, male SD rats) worked out at 90.4 ng/mL. In data set [1] (rat, plasma, 2 h, oral administration of everolimus 10.000 mg/kg, male SD rats), this molecule yielded a concentration at 2 h of 69.7 ng/mL. This molecule also registered a concentration at 8 h in data set [1] (rat, plasma, 8 h, oral administration of everolimus 10.000 mg/kg, male SD rats) of 16.3 ng/mL. For the same molecule, the concentration at 24 h in data set [1] (rat, plasma, 24 h, oral administration of everolimus 10.000 mg/kg, male SD rats) worked out at 2.2 ng/mL. For the same molecule, the “area under the curve (AUC) of plasma concentration of everolimus vs. time” value in data set [1] (rats orally administrated with everolimus 10 mg/Kg) is given as “about 450”. The solubility in data set [2] was under 1 µg/mL.
